# Test results reported in patent US20240174696A1, “2,8-DIAZASPIRO[4.5]DECANE COMPOUNDS” (Genentech, Inc., priority 2021, published 2024).
# What was measured:
# [1] = target: Human LATS2 catalytic domain (Homo sapiens (Human), UniProt Q9NRM7); assay: LATS2 High ATP HTRF Assay; type: biochemical; conditions: no asterisk: LATS2 High ATP HTRF Assay, 5000 μM ATP, 0.05 nM LATS2
# In short: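 LATS2 catalytic domain (G553-V1088) co-purified with Mob1b, 0.05 nM, pre-incubated 10 min with compound, then 5000 μM ATP and 0.5 μM STK S1 peptide in HEPES pH7.2 for 2 h at room temperature. HTRF 665/620 nm read; IC50 by four-parameter fit, Ki via Cheng-Prusoff with ATP Km 105 μM.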
# [2] = test system: TAZ nuclear translocation in SW1990 cells; assay: TAZ Nuclear Translocation Assay; type: cell-based; conditions: Homo sapiens, 4 hours
# Experimental: The SW1990 cells (ATCC, CRL2172) were seeded at 5000 cells/well by adding 30 μL/well of cells in RPMI1640, 10% FBS, 2 mM glutamine culture media to a 384-well plate (Greiner 781091). The cells were incubated overnight at 37° C. Next day, test compounds were directly added to the cells using the Echo Liquid Handler (Labcyte), incubate at 37° C. for 4 hours. The cells were fixed with 4% paraformaldehyde and incubate for 20 minutes at room temperature. After washing three times with 100 μL PBS, 0.5% Triton X-100 was added to permeabilize the cells, incubate at room temperature for 5 minutes, following by washing the cells three times with PBS. 3% BSA was added to the cells, incubate for one hour at room temperature, following by washing three times with PBS. 50 μL of 1:750 diluted rabbit Anti-TAZ (Cell signaling D316D) in 3% BSA was added to the cells, incubate at 4° C. overnight. Next day, after washing the cells three times with PBS, 50 μL of 1:1250 diluted donkey anti-Rabbit, Alexa Fluor 488 (Invitrogen A21206) and 1:6250 diluted Hoechst 33342 (Molecular Probes H-21492) in 3% BSA was added to the cells, incubate at room temperature for one hour. The cells were washed three times with PBS, then image with the CellInsight CX7 High-Content Imager. The ratio of nuclear mean fluorescence intensity and cytoplasmic ring region mean fluorescence intensity was calculated. The % inhibition was normalized using DMSO as 0% inhibition and an inhibitor control as 100% inhibition. The EC50 values were calculated by fitting the % inhibition with a nonlinear four-parameter logistical equation.
# Sequence of Human LATS2 catalytic domain (Q9NRM7 553-1088): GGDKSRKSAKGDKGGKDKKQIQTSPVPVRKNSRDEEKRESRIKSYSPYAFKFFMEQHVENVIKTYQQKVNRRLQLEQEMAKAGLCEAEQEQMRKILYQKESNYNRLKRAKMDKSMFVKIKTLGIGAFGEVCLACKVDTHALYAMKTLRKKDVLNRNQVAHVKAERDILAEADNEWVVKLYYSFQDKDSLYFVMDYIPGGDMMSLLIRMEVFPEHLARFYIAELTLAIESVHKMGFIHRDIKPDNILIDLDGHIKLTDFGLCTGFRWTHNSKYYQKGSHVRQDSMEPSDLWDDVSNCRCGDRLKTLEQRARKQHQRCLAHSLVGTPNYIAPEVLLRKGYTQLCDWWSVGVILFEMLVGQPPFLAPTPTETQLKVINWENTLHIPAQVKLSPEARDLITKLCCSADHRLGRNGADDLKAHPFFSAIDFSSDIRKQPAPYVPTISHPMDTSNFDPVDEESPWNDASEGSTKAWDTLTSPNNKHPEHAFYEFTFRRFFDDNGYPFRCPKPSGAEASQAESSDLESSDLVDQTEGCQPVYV
# Sequence of Human LATS2 catalytic domain (Q7L9L4 whole entry partner, the tested form may be a part): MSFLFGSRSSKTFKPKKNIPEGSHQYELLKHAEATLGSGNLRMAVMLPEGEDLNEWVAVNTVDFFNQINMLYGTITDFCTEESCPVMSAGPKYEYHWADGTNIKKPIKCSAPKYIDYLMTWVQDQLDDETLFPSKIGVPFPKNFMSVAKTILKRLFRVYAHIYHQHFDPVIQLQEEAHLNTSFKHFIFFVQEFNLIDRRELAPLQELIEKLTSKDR
Compound,Ki [1] [nM],EC50 [2] [nM]
"Cc1cc2c(N3CCC4(CCNC4)CC3)nc(-c3c[nH]nc3C)nc2cn1 [Compound 160, 6-methyl-2-(3-methyl-1H-pyrazol-4-yl)-4-(2,8-diazaspiro[4.5]decan-8-yl)pyrido[3,4-d]pyrimidine]",2.02,> 10000
"Clc1cncc2nc(-c3ccncc3)nc(N3CCC4(CCNC4)CC3)c12 [Compound 161, 5-chloro-2-(pyridin-4-yl)-4-(2,8-diazaspiro[4.5]decan-8-yl)pyrido[3,4-d]pyrimidine]",5.55,1900
"Cc1cncc2nc(-c3ccncc3)nc(N3CCC4(CCNC4)CC3)c12 [Compound 162, 5-methyl-2-(pyridin-4-yl)-4-(2,8-diazaspiro[4.5]decan-8-yl)pyrido[3,4-d]pyrimidine]",1.54,4700
"Cc1n[nH]cc1-c1nc(N2CCC3(CCNC3)CC2)c2ccnc(C)c2n1 [Compound 163, 8-methyl-2-(3-methyl-1H-pyrazol-4-yl)-4-(2,8-diazaspiro[4.5]decan-8-yl)pyrido[3,4-d]pyrimidine]",2.88,> 10000
"CC1NCCC12CCN(c1nc(-c3ccncc3)nc3cnccc13)CC2 (centres unmarked) [Compound 166, 4-(1-methyl-2,8-diazaspiro[4.5]decan-8-yl)-2-(pyridin-4-yl)pyrido[3,4-d]pyrimidine]",2.67,1800
"CC1CC2(CCN(c3nc(-c4ccncc4)nc4cnccc34)CC2)CN1C (centres unmarked) [Compound 168, 4-(2,3-dimethyl-2,8-diazaspiro[4.5]decan-8-yl)-2-(pyridin-4-yl)pyrido[3,4-d]pyrimidine]",1.62,830
"COC(=O)C1CC2(CCN(c3nc(-c4ccncc4)nc4cnccc34)CC2)CN1 (centres unmarked) [Compound 171, methyl 8-(2-(pyridin-4-yl)pyrido[3,4-d]pyrimidin-4-yl)-2,8-diazaspiro[4.5]decane-3-carboxylate]",1.95,8400
"CNC(=O)C1CC2(CCN(c3nc(-c4ccncc4)nc4cnccc34)CC2)CN1 (centres unmarked) [Compound 172, N-methyl-8-(2-(pyridin-4-yl)pyrido[3,4-d]pyrimidin-4-yl)-2,8-diazaspiro[4.5]decane-3-carboxamide]",0.64,6500
"Fc1cnccc1-c1nc(N2CCC3(CCNC3)CC2)c2ccncc2n1 [Compound 182, 2-(3-fluoropyridin-4-yl)-4-(2,8-diazaspiro[4.5]decan-8-yl)pyrido[3,4-d]pyrimidine]",2.26,2700
"Cc1[nH]ncc1-c1nc(N2CCC3(CCNC3)CC2)c2c(F)cncc2n1 [Compound 186, 5-fluoro-2-(5-methyl-1H-pyrazol-4-yl)-4-(2,8-diazaspiro[4.5]decan-8-yl)pyrido[3,4-d]pyrimidine]",2.26,> 10000
"OC1CNCC12CCN(c1nc(-c3ccncc3)nc3cnccc13)CC2 (centres unmarked) [Compound 187, 8-(2-(pyridin-4-yl)pyrido[3,4-d]pyrimidin-4-yl)-2,8-diazaspiro[4.5]decan-4-ol]",1.44,> 10000
"CN1CCC2(CCN(c3nc(-c4ccncc4)nc4cnc(Cn5cc(Cl)cn5)cc34)CC2)C1 [Compound 189, 6-((4-chloro-1H-pyrazol-1-yl)methyl)-4-(2-methyl-2,8-diazaspiro[4.5]decan-8-yl)-2-(pyridin-4-yl)pyrido[3,4-d]pyrimidine]",0.76,540
"Cc1n[nH]cc1-c1nc(N2CCC3(CCN(C)C3)CC2)c2cc(Cn3cc(Cl)cn3)ncc2n1 [Compound 190, 6-((4-chloro-1H-pyrazol-1-yl)methyl)-2-(3-methyl-1H-pyrazol-4-yl)-4-(2-methyl-2,8-diazaspiro[4.5]decan-8-yl)pyrido[3,4-d]pyrimidine]",0.026,110
"OCC1CC2(CCN(c3nc(-c4ccncc4)nc4cnccc34)CC2)CN1 (centres unmarked) [Compound 196, (8-(2-(pyridin-4-yl)pyrido[3,4-d]pyrimidin-4-yl)-2,8-diazaspiro[4.5]decan-3-yl)methanol]",0.057,970
"Cc1n[nH]c(C)c1-c1nc(N2CCC3(CCNC3)CC2)c2ccncc2n1 [Compound 241, 2-(3,5-Dimethyl-1H-pyrazol-4-yl)-4-(2,8-diazaspiro[4.5]decan-8-yl)pyrido[3,4-d]pyrimidine]",1.4,> 10000
"COCc1nccc2c(N3CCC4(CCNC4)CC3)nc(-c3ccncc3)nc12 [Compound 242, 8-(methoxymethyl)-2-(pyridin-4-yl)-4-(2,8-diazaspiro[4.5]decan-8-yl)pyrido[3,4-d]pyrimidine]",0.76,2800
"COCc1cncc2nc(-c3ccncc3)nc(N3CCC4(CCNC4)CC3)c12 [Compound 243, 5-(Methoxymethyl)-2-(pyridin-4-yl)-4-(2,8-diazaspiro[4.5]decan-8-yl)pyrido[3,4-d]pyrimidine]",1.9,3900
"CC(C)(O)C#Cc1nccc2c(N3CCC4(CCNC4)CC3)nc(-c3ccncc3)nc12 [Compound 245, 2-methyl-4-(2-(pyridin-4-yl)-4-(2,8-diazaspiro[4.5]decan-8-yl)pyrido[3,4-d]pyrimidin-8-yl)but-3-yn-2-ol]",0.039,4800
"FC(F)(F)c1cncc2nc(-c3ccncc3)nc(N3CCC4(CCNC4)CC3)c12 [Compound 246, 2-(pyridin-4-yl)-4-(2,8-diazaspiro[4.5]decan-8-yl)-5-(trifluoromethyl)pyrido[3,4-d]pyrimidine]",3.5,3100
"CN1CCC2(CCN(c3nc(-c4ccncc4)nc4c(C#CC(C)(C)O)nccc34)CC2)C1 [Compound 247, 2-methyl-4-(4-(2-methyl-2,8-diazaspiro[4.5]decan-8-yl)-2-(pyridin-4-yl)pyrido[3,4-d]pyrimidin-8-yl)but-3-yn-2-ol]",0.039,310
"CC(C)Oc1cncc2nc(-c3ccncc3)nc(N3CCC4(CCNC4)CC3)c12 [Compound 248, 5-isopropoxy-2-(pyridin-4-yl)-4-(2,8-diazaspiro[4.5]decan-8-yl)pyrido[3,4-d]pyrimidine]",0.02,110
"Oc1cncc2nc(-c3ccncc3)nc(N3CCC4(CCNC4)CC3)c12 [Compound 249, 2-(Pyridin-4-yl)-4-(2,8-diazaspiro[4.5]decan-8-yl)pyrido[3,4-d]pyrimidin-5-ol]",0.27,> 10000
"COc1cncc2nc(-c3ccncc3)nc(N3CCC4(CCN(CC(C)(C)O)C4)CC3)c12 [Compound 250, 1-(8-(5-methoxy-2-(pyridin-4-yl)pyrido[3,4-d]pyrimidin-4-yl)-2,8-diazaspiro[4.5]decan-2-yl)-2-methylpropan-2-ol]",0.033,100
"[O-][n+]1ccc(-c2nc(N3CCC4(CCNC4)CC3)c3ccncc3n2)cc1 [Compound 251, 4-(4-(2,8-diazaspiro[4.5]decan-8-yl)pyrido[3,4-d]pyrimidin-2-yl)pyridine 1-oxide]",3.5,> 10000
"COc1cncc2nc(-c3ccncc3)nc(N3CCC4(CCN(CC5(O)CCC5)C4)CC3)c12 [Compound 253, 1-((8-(5-methoxy-2-(pyridin-4-yl)pyrido[3,4-d]pyrimidin-4-yl)-2,8-diazaspiro[4.5]decan-2-yl)methyl)cyclobutan-1-ol]",0.28,120
